Results from US6130250A, “Veterinary use of a pleuromutilin derivative” (priority 1996, dated 2000).
Entries after “also recorded” stand apart in the source; their conditions may differ. Counter-ions that a name gives are not always drawn.

Legend:
M. hyopneumoniae [1] = test: Prevention of experimentally-induced enzootic pneumonia in vivo (Trials 1-3); set-up: species or system pigs
Description: An experimental model of enzootic pneumonia, using passaged lung material originally derived by infection of gnotobiotic pigs with M. hyopneumoniae,was employed to assess the potential of valnemulin for prevention of the disease. Three trials were performed: Trials 1 and 2 were dose titration studies of the novel compound using a standard challenge strain of M. hyopneumoniae and in Trial 3, the efficacy of the compound at 200 ppm in feed against a second challenge strain was assessed. Large white Landrace male pigs, 6-7 weeks of age, from stock free of infection with M. hyopneumoniae are used. The challenge materials are pneumonic lungs containing M. hyopneumoniae given as a homogenate intranasally on three successive days. […] The challenge material was originally derived by infection of gnotobiotic pigs with M. hyopneumoniae and subsequent passage in SPF (Specific Pathogen-free) pigs and had been stored below -70° C.
Trial 1: Medication with valnemulin hydrochloride by stomach tube (gavage) once a day at 0 (control), 2.5, 5, 7.5 or 10 mg/kg body weight per day. Six pigs per group.
Trial 2: Medication with valnemulin hydrochloride in feed at 0, 100, 200, 300 or 400 ppm (equivalent to 0, 5, 10, 15 and 20 mg/kg/day). Six pigs per group.
Trial 3: Medication with valnemulin hydrochloride in feed at 0 or 200 ppm (equivalent to 0 and 10 mg/kg/day). Eight pigs per group. Medication was given from the first day of challenge infection until post-mortem examination performed approximately 3 weeks after challenge infection. Disease was assessed by quantifying lung lesions [Cambridge lung lesion scoring system (Goodwin, R. F. W. and Whittlestone, P., J. Hyg. 69 [1971] 391-397), in which the score is an approximation of percent of lung affected with pneumonia], by estimation of lung-bodyweight ratio and by isolation of M. hyopneumoniae from lungs.

M. hyopneumoniae [2] = test: Development of resistance (habituation study), MIC before and after passages; type: cell-based, Mycoplasma hyopneumoniae; conditions: for Resistance increase: up to P10/P11
Description: Mycoplasma hyopneumoniae reference strain NCTC 10110 (obtained from the National Collection of Type Cultures, London, UK) and a recent field isolate (MEVT G23), are grown aerobically at 36° C. in Mycoplasma glucose broth containing phenol red until an acid colour change occurs. After addition of sterile glycerol (5% v/v) the cultures are dispensed in 1 ml aliquots and frozen at -70° C. These cultures are used to initiate further broth cultures which are titrated to obtain the number of colour changing units (ccu) in microtitre plates after incubation (36° C.). Replication allows challenge of antibiotic dilutions with predetermined numbers of ccu in minimal inhibitory concentration (MIC) tests and in the primary passage in habituation studies.
A commercially available medium (Mycopiasma Experience Ltd.) containing glucose and phenol red (MEGB) is used at pH 7.6.
Stock test compound solutions are prepared at 1000 μg/ml in deionized water. After vortexing, the solutions are sterilized by filtration through 0.2μ pore size membrane filters (Sartorius Minisart, N). For use in the MIC tests the stock solutions are diluted in mycoplasma broth to double the final concentrations required. In habituation studies the stock solutions are dispensed in 1 ml aliquots and frozen at -20° C. These are thawed and used at 5 day-7 day intervals to prepare ranges of concentrations of drug (doubling series) in MEGB, in 1.9 ml aliquots, covering the MICs against both strains of M. hyopneumoniae. Oxytetracycline hydrochloride is prepared fresh on each occasion. The dilution ranges are gradually changed from passage to passage to allow for the development of resistance in the mycoplasmas.
MIC tests are carried out by the method of Tanner & Wu, Avian Diseases 36 (1992) 714-717 before carrying out the habituation study (below) and after the 10th passages 0.1 ml aliquots of the compound dilution are mixed with 0.1 ml aliquots of the challenge inocula, containing between 10^3 and 10^5 colour changing units (ccu) per ml, in microtitre wells. Each microtitre plate contains uninoculated medium, medium at pH 6.8 (end-point-control) and drug-free inoculated challenge controls. All plates are sealed and incubated aerobically at 36° C. MICs are recorded when the colour change in the challenge control wells match the pH 6.8 control (orange-yellow). The MIC is the lowest concentration to show no colour change.
Habituation study: In the primary passage experiment, 1.9 ml volumes of antibiotic solutions at concentrations covering the MIC of the M. hyopneumoniae strain under test, are inoculated with 0.1 ml of broth culture containing between 10^3 ccu/ml to 10^5 ccu/ml. A growth control consisting of drug-free broth inoculated with M. hyopneumoniae and an uninoculated medium control are included in each passage experiment. After 7 days incubation (36° C.) the two highest concentrations of drug-containing broth showing an acid colour change are pooled and used to inoculate a fresh series of drug dilutions in mycoplasma broth (0.1 ml culture into 1.9 ml drug-containing broth). This process is repeated every 5-7 days for up to 10 passages. When the mycoplasma strains become resistant to particular antibiotics, or at the 10th passage, each strain is grown once more in drug-containing broth and the MICs determined.

[3] = Trial 2, feed, 100 ppm (5 mg/kg)
[4] = Trial 2, feed, 200 ppm (10 mg/kg)
[5] = Trial 2, feed, 300 ppm (15 mg/kg)
[6] = Trial 2, feed, 400 ppm (20 mg/kg)
[7] = Trial 3, feed, 200 ppm (10 mg/kg)

In the case of C=C[C@]1(C)C[C@@H](OC(=O)CSC(C)(C)CNC(=O)[C@H](N)C(C)C)[C@]2(C)[C@H](C)CC[C@]3(CCC(=O)[C@H]32)[C@@H](C)[C@@H]1O [valnemulin hydrochloride, 14-O-[1-[(R)-2-amino-3-methylbutyrylamino]-2-methylpropan-2-ylthioacetyl]mutilin], the “pigs from which M. hyopneumoniae was reisolated” value (“pigs” for short) (M. hyopneumoniae [1]; Trial 1, 2.5 mg/kg) is reported as 4 pigs, the reduction of lesions (M. hyopneumoniae [1]; Trial 1, 7.5 mg/kg) is reported as 71% and the “pigs” value (M. hyopneumoniae [1]; Trial 1, 10 mg/kg) is reported as 1 pigs. The reduction of lesions (M. hyopneumoniae [1]; Trial 1, 10 mg/kg) was 87%, the “effect on lesions in words” value (M. hyopneumoniae [1]; Trial 1, 2.5 and 5 mg/kg/day) was “somewhat less effective at reducing lesions” and the Lung lesion score (M. hyopneumoniae [1]; Trial 1, gavage, 2.5 mg/kg/day) was 7.7. For the same compound, the Lung-bodyweight ratio (M. hyopneumoniae [1]; Trial 1, gavage, 2.5 mg/kg/day) was 1.21%, the Lung lesion score (M. hyopneumoniae [1]; Trial 1, gavage, 5 mg/kg/day) was 11.1 and the Lung-bodyweight ratio (M. hyopneumoniae [1]; Trial 1, gavage, 5 mg/kg/day) was 1.31%. It also gave a Lung lesion score (M. hyopneumoniae [1]; Trial 1, gavage, 7.5 mg/kg/day) of 3.8, a Lung-bodyweight ratio (M. hyopneumoniae [1]; Trial 1, gavage, 7.5 mg/kg/day) of 1.21% and a Lung lesion score (M. hyopneumoniae [1]; Trial 1, gavage, 10 mg/kg/day) of 1.7. For the same compound, the Lung-bodyweight ratio (M. hyopneumoniae [1]; Trial 1, gavage, 10 mg/kg/day) was 1.08%, the “pigs” value (M. hyopneumoniae [1]; Trial 2, 100 ppm) was 4 pigs and the reduction in lesions (M. hyopneumoniae [1]; Trial 2, 100 ppm) was “No reduction in lesions”. The “pigs” value (M. hyopneumoniae [1]; Trial 2, 200 ppm) was 3 pigs, the reduction of lesions (M. hyopneumoniae [1]; Trial 2, 200 ppm) was 46% and the reduction of lesions (M. hyopneumoniae [1]; Trial 2, 300 ppm) was 43%. The “reisolation of M. hyopneumoniae” value (M. hyopneumoniae [1]; Trial 2, 300 ppm) was “not reisolated”, the reduction of lesions (M. hyopneumoniae [1]; Trial 2, 400 ppm) was 71% and the “reisolation of M. hyopneumoniae” value (M. hyopneumoniae [1]; Trial 2, 400 ppm) was “not reisolated”. It also gave a Lung lesion score (M. hyopneumoniae [1]; [3]) of 25, a Lung-bodyweight ratio (M. hyopneumoniae [1]; [3]) of 1.53% and a Lung lesion score (M. hyopneumoniae [1]; [4]) of 12. It also gave a Lung-bodyweight ratio (M. hyopneumoniae [1]; [4]) of 1.29%, a Lung lesion score (M. hyopneumoniae [1]; [5]) of 12.7 and a Lung-bodyweight ratio (M. hyopneumoniae [1]; [5]) of 1.27%. For the same compound, the Lung lesion score (M. hyopneumoniae [1]; [6]) was 6.3, the Lung-bodyweight ratio (M. hyopneumoniae [1]; [6]) was 1.24% and the “reduction of lung weights” value (M. hyopneumoniae [1]; Trial 2, levels down to 200 ppm) was “significant reductions at levels down to 200 ppm”. For the same compound, the “levels of M. hyopneumoniae at post-mortem, medicated vs unmedicated” value (M. hyopneumoniae [1]; Trial 3, 200 ppm) was “no difference in the levels of M. hyopneumoniae”, the “reduction of lesion scores” value (M. hyopneumoniae [1]; Trial 3, 200 ppm in feed) was 79% and the Lung lesion score (M. hyopneumoniae [1]; [7]) was 2.3. The Lung-bodyweight ratio (M. hyopneumoniae [1]; [7]) was 1.21%, the “prevention of experimentally-induced enzootic pneumonia” value (M. hyopneumoniae [1]; separate experiments, two challenge strains) was “effective for the prevention of experimentally-induced enzootic pneumonia” and the “resistance development in words” value (M. hyopneumoniae [2]; M. hyopneumoniae strains, in vitro passages) was “resistance development was minimal; also recorded: does not induce significant resistance to itself”. The MIC (M. hyopneumoniae [2]; Mesomycoplasma hyopneumoniae, NCTC10110, read-out: Post-passage MIC up to P10/P11) was 5 ng/mL, the Resistance increase (M. hyopneumoniae [2]; NCTC 10110) was 2 fold and the “activity greater than those of tylosin and oxytetracycline” value (M. hyopneumoniae [2]; before exposure, both strains) was 50-100 told. It also gave a Resistance increase (M. hyopneumoniae [2]; field isolate) of 2.5 fold.
